Test results from patent publication US20250163054A1, “SUBSTITUTED BICYCLIC HETEROARYL COMPOUNDS USEFUL AS INHIBITORS OF TLR9” (Bristol-Myers Squibb Company, priority 2022, published 2025).

Assays:
Assay type in all cases: cell-based
human TLR9 = target: T1, human TLR9 (Homo sapiens, UniProt Q9NR96); assay: TLR7/8/9 Inhibition Reporter Assays (TLR9); conditions: HEK-Blue cells overexpressing human TLR9, SEAP reporter, stimulated with TLR9 ligand ODN2006
T1 construct: host or cells: HEK-Blue cells (HEK293-derived reporter line)
T1 sequence (Q9NR96 26-1032): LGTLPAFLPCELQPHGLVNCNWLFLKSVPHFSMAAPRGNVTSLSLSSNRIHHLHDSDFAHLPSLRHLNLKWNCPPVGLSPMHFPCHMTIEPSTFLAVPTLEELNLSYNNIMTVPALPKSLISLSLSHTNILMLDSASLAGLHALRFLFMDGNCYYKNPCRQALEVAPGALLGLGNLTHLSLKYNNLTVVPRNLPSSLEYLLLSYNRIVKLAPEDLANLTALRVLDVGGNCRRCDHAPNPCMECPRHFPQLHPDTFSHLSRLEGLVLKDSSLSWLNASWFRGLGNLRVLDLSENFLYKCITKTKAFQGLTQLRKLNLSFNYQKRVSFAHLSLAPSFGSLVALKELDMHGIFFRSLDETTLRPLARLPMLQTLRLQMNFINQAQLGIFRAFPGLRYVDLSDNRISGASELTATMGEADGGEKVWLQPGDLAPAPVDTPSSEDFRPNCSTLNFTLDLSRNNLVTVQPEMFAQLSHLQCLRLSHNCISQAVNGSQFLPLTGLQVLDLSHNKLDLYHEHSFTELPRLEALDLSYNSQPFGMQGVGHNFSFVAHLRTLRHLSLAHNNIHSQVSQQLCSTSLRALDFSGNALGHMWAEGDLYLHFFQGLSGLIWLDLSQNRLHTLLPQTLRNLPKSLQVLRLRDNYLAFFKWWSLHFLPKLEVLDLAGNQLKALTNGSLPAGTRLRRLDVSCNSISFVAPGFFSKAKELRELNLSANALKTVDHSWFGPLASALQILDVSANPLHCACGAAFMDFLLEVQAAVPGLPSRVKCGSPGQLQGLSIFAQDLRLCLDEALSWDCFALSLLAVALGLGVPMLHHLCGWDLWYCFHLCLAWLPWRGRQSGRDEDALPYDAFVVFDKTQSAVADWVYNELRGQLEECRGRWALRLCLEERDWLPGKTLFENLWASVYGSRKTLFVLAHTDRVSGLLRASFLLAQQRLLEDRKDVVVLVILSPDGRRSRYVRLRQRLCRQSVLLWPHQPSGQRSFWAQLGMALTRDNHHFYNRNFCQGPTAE
How it was run: (§1)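 HEK-Blue cells overexpressing human TLR7, TLR8 or TLR9 with NF-κB/AP-1-driven SEAP reporter, pre-treated 60 min with compound ([…]). Stimulated with […] (TLR7), […] (TLR8) or ODN2006 200 nM (TLR9), then 22 h at 37° C; SEAP measured, % inhibition relative to agonist-plus-DMSO and known-inhibitor wells.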

human TLR7 = target: T2, human TLR7 (Homo sapiens, UniProt Q9NYK1); assay: TLR7/8/9 Inhibition Reporter Assays (TLR7); conditions: HEK-Blue cells overexpressing human TLR7, SEAP reporter, stimulated with TLR7 ligand gardiquimod
T2 construct: host or cells: HEK-Blue cells (HEK293-derived reporter line)
T2 sequence (Q9NYK1 27-1049): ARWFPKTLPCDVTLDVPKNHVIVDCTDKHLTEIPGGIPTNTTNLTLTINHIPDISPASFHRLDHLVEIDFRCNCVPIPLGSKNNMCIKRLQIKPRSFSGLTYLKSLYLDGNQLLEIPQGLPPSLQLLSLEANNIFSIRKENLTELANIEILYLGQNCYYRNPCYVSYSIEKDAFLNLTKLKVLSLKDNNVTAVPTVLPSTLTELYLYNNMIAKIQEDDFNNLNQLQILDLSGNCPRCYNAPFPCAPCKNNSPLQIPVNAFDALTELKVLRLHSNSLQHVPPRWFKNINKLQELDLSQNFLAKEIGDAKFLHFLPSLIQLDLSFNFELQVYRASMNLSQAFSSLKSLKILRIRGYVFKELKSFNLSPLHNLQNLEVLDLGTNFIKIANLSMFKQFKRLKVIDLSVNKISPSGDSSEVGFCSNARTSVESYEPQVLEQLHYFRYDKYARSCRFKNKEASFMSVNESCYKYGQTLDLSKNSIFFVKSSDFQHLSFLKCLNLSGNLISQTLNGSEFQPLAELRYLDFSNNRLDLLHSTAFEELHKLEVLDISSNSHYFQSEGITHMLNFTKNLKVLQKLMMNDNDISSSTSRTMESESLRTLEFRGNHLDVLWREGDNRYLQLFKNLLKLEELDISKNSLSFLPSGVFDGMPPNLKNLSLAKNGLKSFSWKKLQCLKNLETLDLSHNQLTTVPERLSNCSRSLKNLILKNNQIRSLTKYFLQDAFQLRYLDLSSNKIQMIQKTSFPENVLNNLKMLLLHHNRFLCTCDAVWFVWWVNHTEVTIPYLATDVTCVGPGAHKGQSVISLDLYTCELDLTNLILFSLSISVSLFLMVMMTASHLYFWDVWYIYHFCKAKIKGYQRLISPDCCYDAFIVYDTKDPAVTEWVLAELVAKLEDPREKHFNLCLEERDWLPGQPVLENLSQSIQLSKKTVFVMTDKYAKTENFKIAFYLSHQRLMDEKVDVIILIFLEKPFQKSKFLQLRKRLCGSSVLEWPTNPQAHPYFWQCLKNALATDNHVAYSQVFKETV
How it was run: as §1

human TLR8 = target: T3, human TLR8 (Homo sapiens, UniProt Q9NR97); assay: TLR7/8/9 Inhibition Reporter Assays (TLR8); conditions: HEK-Blue cells overexpressing human TLR8, SEAP reporter, stimulated with TLR8 ligand R848
T3 construct: host or cells: HEK-Blue cells (HEK293-derived reporter line)
T3 sequence (Q9NR97 27-1041): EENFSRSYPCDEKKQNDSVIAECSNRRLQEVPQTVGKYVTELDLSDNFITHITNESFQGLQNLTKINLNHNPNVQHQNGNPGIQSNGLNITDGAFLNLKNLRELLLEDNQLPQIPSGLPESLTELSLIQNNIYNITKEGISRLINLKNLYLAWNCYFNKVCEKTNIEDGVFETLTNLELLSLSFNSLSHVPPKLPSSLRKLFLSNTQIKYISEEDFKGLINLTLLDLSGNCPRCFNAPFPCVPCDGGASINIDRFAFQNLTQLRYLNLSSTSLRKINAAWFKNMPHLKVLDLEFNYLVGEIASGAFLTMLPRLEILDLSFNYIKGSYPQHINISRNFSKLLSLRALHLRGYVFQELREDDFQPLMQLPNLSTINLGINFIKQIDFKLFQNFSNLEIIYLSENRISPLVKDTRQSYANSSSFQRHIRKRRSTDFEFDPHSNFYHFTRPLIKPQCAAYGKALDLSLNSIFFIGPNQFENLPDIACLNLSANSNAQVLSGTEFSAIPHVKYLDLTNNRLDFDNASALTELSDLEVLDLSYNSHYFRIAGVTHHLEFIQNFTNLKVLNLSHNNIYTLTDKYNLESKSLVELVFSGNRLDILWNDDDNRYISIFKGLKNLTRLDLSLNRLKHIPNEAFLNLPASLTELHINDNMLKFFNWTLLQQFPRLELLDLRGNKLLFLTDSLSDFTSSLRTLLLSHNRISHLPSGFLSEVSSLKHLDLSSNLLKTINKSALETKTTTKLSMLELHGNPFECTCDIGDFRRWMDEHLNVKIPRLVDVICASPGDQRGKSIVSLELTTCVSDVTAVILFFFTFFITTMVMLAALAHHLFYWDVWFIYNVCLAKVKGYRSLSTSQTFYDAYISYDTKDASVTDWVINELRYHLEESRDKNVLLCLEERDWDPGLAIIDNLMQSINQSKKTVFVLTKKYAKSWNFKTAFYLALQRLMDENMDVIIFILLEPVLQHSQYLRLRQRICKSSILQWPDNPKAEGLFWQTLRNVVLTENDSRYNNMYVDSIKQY
How it was run: as §1

IC50 (human TLR9) [nM]	IC50 (human TLR7) [nM]	IC50 (human TLR8) [nM]	SMILES
59	5400	> 50000	COc1ccc(-c2nc3c(C)nc(-c4ccc(N5C[C@H]6CN(CC(C)C)C[C@H]6C5)cc4)cc3n2C)cc1OC [Example 65, 2-(3,4-dimethoxyphenyl)-6-(4-((3aR,6aS)-5-isobutylhexahydropyrrolo[3,4-c]pyrrol-2(1H)-yl)phenyl)-1,4-dimethyl-1H-imidazo[4,5-c]pyridine]
29	2300	20000	COc1ccc(-c2nc3c(C)nc(-c4ccc(N5C[C@@H]6CN(C7CCC7)C[C@@H]6C5)cc4)cc3n2C)cc1OC [Example 66, 6-(4-((3aR,6aS)-5-cyclobutylhexahydropyrrolo[3,4-c]pyrrol-2(1H)-yl)phenyl)-2-(3,4-dimethoxyphenyl)-1,4-dimethyl-1H-imidazo[4,5-c]pyridine]
41	1900	1800	Cc1nc(-c2ccc(N3C[C@@H]4CN(C(C)C)C[C@@H]4C3)cc2)cc2c1nc(-c1ccc(S(C)(=O)=O)cc1)n2C [Example 67, 6-(4-((3aR,6aS)-5-isopropylhexahydropyrrolo[3,4-c]pyrrol-2(1H)-yl)phenyl)-1,4-dimethyl-2-(4-(methylsulfonyl)phenyl)-1H-imidazo[4,5-c]pyridine]
32	2000	3100	Cc1nc(-c2ccc(N3C[C@H]4CN(CC(C)C)C[C@H]4C3)cc2)cc2c1nc(-c1ccc(S(C)(=O)=O)cc1)n2C [Example 68, 6-(4-((3aR,6aS)-5-isobutylhexahydropyrrolo[3,4-c]pyrrol-2(1H)-yl)phenyl)-1,4-dimethyl-2-(4-(methylsulfonyl)phenyl)-1H-imidazo[4,5-c]pyridine]
37	2800	5400	Cc1nc(-c2ccc(N3C[C@@H]4CN(C5CCC5)C[C@@H]4C3)cc2)cc2c1nc(-c1ccc(S(C)(=O)=O)cc1)n2C [Example 69, 6-(4-((3aR,6aS)-5-cyclobutylhexahydropyrrolo[3,4-c]pyrrol-2(1H)-yl)phenyl)-1,4-dimethyl-2-(4-(methylsulfonyl)phenyl)-1H-imidazo[4,5-c]pyridine]
230	5300	440	CC(C)N1CCN(c2ccc(-c3cc4c(cn3)nc(-c3ccc(S(C)(=O)=O)cc3)n4C)cc2)CC1 [Example 70, 6-(4-(4-isopropylpiperazin-1-yl)phenyl)-1-methyl-2-(4-(methylsulfonyl)phenyl)-1H-imidazo[4,5-c]pyridine]
130	1000	17000	COc1ccc(-c2nc3c(C)nc(-c4ccc(N5CC6(CN(CC(C)C)C6)C5)cc4)cc3n2C)cc1OC [Example 71, 2-(3,4-dimethoxyphenyl)-6-(4-(6-isobutyl-2,6-diazaspiro[3.3]heptan-2-yl)phenyl)-1,4-dimethyl-1H-imidazo[4,5-c]pyridine]
160	650	6000	Cc1nc(-c2ccc(N3CCC4(CC3)CN(C(C)C)C4)cc2)cc2c1nc(-c1ccc(S(C)(=O)=O)cc1)n2C [Example 72, 6-(4-(2-isopropyl-2,7-diazaspiro[3.5]nonan-7-yl)phenyl)-1,4-dimethyl-2-(4-(methylsulfonyl)phenyl)-1H-imidazo[4,5-c]pyridine]
110	890	3900	Cc1nc(-c2ccc(N3CCC4(CC3)CN(CC(C)C)C4)cc2)cc2c1nc(-c1ccc(S(C)(=O)=O)cc1)n2C [Example 73, 6-(4-(2-isobutyl-2,7-diazaspiro[3.5]nonan-7-yl)phenyl)-1,4-dimethyl-2-(4-(methylsulfonyl)phenyl)-1H-imidazo[4,5-c]pyridine]
38	1100	3700	Cc1nc(-c2ccc(N3CCC4(CC3)CN(C3CCC3)C4)cc2)cc2c1nc(-c1ccc(S(C)(=O)=O)cc1)n2C [Example 74, 6-(4-(2-cyclobutyl-2,7-diazaspiro[3.5]nonan-7-yl)phenyl)-1,4-dimethyl-2-(4-(methylsulfonyl)phenyl)-1H-imidazo[4,5-c]pyridine]
